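Results reflect a 48-hour exposure of cells in 96-well plates to compound at five concentrations. GI50 = concentration required for 50% inhibition of growth.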 Activity calls are given as the source filed them. No stated cut-off is given here; in the data, active = GI50 up to about 1.1 µM and inactive = higher.
Tests used:
Test in all cases: NCI tumour cell line growth inhibition, 48 h
786-0 = system: 786-0
A549 = system: A549
ACHN = system: ACHN
CAKI-1 = system: CAKI-1
COLO 205 = system: COLO 205
DLD-1 = system: DLD-1
DMS-114 = system: DMS-114
DMS-273 = system: DMS-273
EKVX = system: EKVX
HCC 2998 = system: HCC 2998
HCT-116 = system: HCT-116
HCT-15 = system: HCT-15
HL-60 = system: HL-60
HOP-18 = system: HOP-18
HOP-62 = system: HOP-62
HOP-92 = system: HOP-92
HT-29 = system: HT-29
IGROV-1 = system: IGROV-1
K562 = system: K562
KM-20L2 = system: KM-20L2
KM12 = system: KM12
LOX IMVI = system: LOX IMVI
LXFL 529 = system: LXFL 529
M14 = system: M14
M19-MEL = system: M19-MEL
MOLT-4 = system: MOLT-4
Malme-3M = system: Malme-3M
NCI-H226 = system: NCI-H226
NCI-H23 = system: NCI-H23
NCI-H460 = system: NCI-H460
NCI-H522 = system: NCI-H522
OVCAR-3 = system: OVCAR-3
OVCAR-4 = system: OVCAR-4
OVCAR-5 = system: OVCAR-5
OVCAR-8 = system: OVCAR-8
RPMI-8226 = system: RPMI-8226
RXF 393 = system: RXF 393
RXF 631 = system: RXF 631
SF-268 = system: SF-268
SF-295 = system: SF-295
SF-539 = system: SF-539
SK-MEL-28 = system: SK-MEL-28
SK-MEL-2 = system: SK-MEL-2
SK-MEL-5 = system: SK-MEL-5
SK-OV-3 = system: SK-OV-3
SN12C = system: SN12C
SNB-19 = system: SNB-19
SNB-75 = system: SNB-75
SNB-78 = system: SNB-78
SR = system: SR
SW-620 = system: SW-620
TK-10 = system: TK-10
U-251 = system: U-251
UACC-257 = system: UACC-257
UACC-62 = system: UACC-62
UO-31 = system: UO-31
XF498 = system: XF498
A498 = system: A498
CCRF-CEM = system: CCRF-CEM

Cn1c(=O)c(C2c3ccccc3Oc3c2c(=O)n(C)c2ccccc32)c(O)c2ccccc21 (stereo not drawn)
GI50 (786-0): 27.2 µM (inactive) | GI50 (A549): 72.6 µM (inactive) | GI50 (ACHN): 39.8 µM (inactive) | GI50 (CAKI-1): 46.9 µM (inactive) | GI50 (COLO 205): 30.6 µM (inactive) | GI50 (DLD-1): 50.9 µM (inactive) | GI50 (DMS-114): 49.1 µM (inactive) | GI50 (DMS-273): 68.7 µM (inactive) | GI50 (EKVX): 41.2 µM (inactive) | GI50 (HCC 2998): 44.3 µM (inactive) | GI50 (HCT-116): 43.2 µM (inactive) | GI50 (HCT-15): 32.4 µM | GI50 (HL-60): 30.1 µM (inactive) | GI50 (HOP-18): > 100 µM (inactive) | GI50 (HOP-62): > 100 µM (inactive) | GI50 (HOP-92): 42.9 µM (inactive) | GI50 (HT-29): 92.7 µM (inactive) | GI50 (IGROV-1): 59.2 µM (inactive) | GI50 (K562): 51.2 µM (inactive) | GI50 (KM-20L2): 59 µM (inactive) | GI50 (KM12): 69.8 µM (inactive) | GI50 (LOX IMVI): 37.9 µM (inactive) | GI50 (LXFL 529): 47.9 µM (inactive) | GI50 (M14): 60 µM (inactive) | GI50 (M19-MEL): > 100 µM (inactive) | GI50 (MOLT-4): 39.4 µM (inactive) | GI50 (Malme-3M): 73.5 µM (inactive) | GI50 (NCI-H226): 46 µM (inactive) | GI50 (NCI-H23): 40.6 µM (inactive) | GI50 (NCI-H460): > 100 µM (inactive) | GI50 (NCI-H522): 24.3 µM (inactive) | GI50 (OVCAR-3): 52 µM (inactive) | GI50 (OVCAR-4): 86.7 µM (inactive) | GI50 (OVCAR-5): > 100 µM (inactive) | GI50 (OVCAR-8): > 100 µM (inactive) | GI50 (RPMI-8226): 38.5 µM (inactive) | GI50 (RXF 393): 63 µM (inactive) | GI50 (RXF 631): 58.2 µM (inactive) | GI50 (SF-268): 66.4 µM (inactive) | GI50 (SF-295): 54.5 µM (inactive) | GI50 (SF-539): 76.2 µM (inactive) | GI50 (SK-MEL-28): 86.9 µM (inactive) | GI50 (SK-MEL-2): 61.7 µM (inactive) | GI50 (SK-MEL-5): > 100 µM (inactive) | GI50 (SK-OV-3): 63.8 µM (inactive) | GI50 (SN12C): 46.7 µM (inactive) | GI50 (SNB-19): 44.4 µM (inactive) | GI50 (SNB-75): 40.9 µM (inactive) | GI50 (SNB-78): 53.3 µM (inactive) | GI50 (SR): 42.1 µM (inactive) | GI50 (SW-620): 43.9 µM (inactive) | GI50 (TK-10): 33.3 µM (inactive) | GI50 (U-251): 41.2 µM (inactive) | GI50 (UACC-257): 24.1 µM (inactive) | GI50 (UACC-62): 44.9 µM (inactive) | GI50 (UO-31): 73.5 µM (inactive) | GI50 (XF498): 26.9 µM (inactive)

CC(C)CC(N)C(=O)OCN1C(=O)C2C3C=CC(C2C1=O)C1C2C(=O)N(COC(=O)C(N)CC(C)C)C(=O)C2C31 (stereo not drawn)
GI50 (786-0): > 100 µM (inactive) | GI50 (A498): > 100 µM (inactive) | GI50 (A549): > 100 µM (inactive) | GI50 (ACHN): > 100 µM (inactive) | GI50 (CAKI-1): > 100 µM (inactive) | GI50 (CCRF-CEM): 75.3 µM (inactive) | GI50 (COLO 205): > 92.3 µM (inactive) | GI50 (DLD-1): > 86.7 µM (inactive) | GI50 (DMS-114): > 62.1 µM (inactive) | GI50 (DMS-273): 97.3 µM (inactive) | GI50 (EKVX): > 100 µM (inactive) | GI50 (HCC 2998): > 100 µM (inactive) | GI50 (HCT-116): > 43.8 µM (inactive) | GI50 (HCT-15): > 45 µM | GI50 (HL-60): 30.4 µM (inactive) | GI50 (HOP-18): > 100 µM (inactive) | GI50 (HOP-62): > 100 µM (inactive) | GI50 (HOP-92): > 100 µM (inactive) | GI50 (HT-29): > 100 µM (inactive) | GI50 (IGROV-1): > 100 µM (inactive) | GI50 (K562): > 100 µM (inactive) | GI50 (KM-20L2): > 100 µM (inactive) | GI50 (KM12): > 100 µM (inactive) | GI50 (LOX IMVI): > 41.5 µM (inactive) | GI50 (LXFL 529): > 100 µM (inactive) | GI50 (M14): > 100 µM (inactive) | GI50 (MOLT-4): > 100 µM (inactive) | GI50 (Malme-3M): > 100 µM (inactive) | GI50 (NCI-H226): > 100 µM (inactive) | GI50 (NCI-H23): > 100 µM (inactive) | GI50 (NCI-H460): > 59.7 µM (inactive) | GI50 (NCI-H522): > 100 µM (inactive) | GI50 (OVCAR-3): > 100 µM (inactive) | GI50 (OVCAR-4): > 100 µM (inactive) | GI50 (OVCAR-5): > 100 µM (inactive) | GI50 (OVCAR-8): > 100 µM (inactive) | GI50 (RPMI-8226): > 48.2 µM (inactive) | GI50 (RXF 393): > 100 µM (inactive) | GI50 (RXF 631): > 100 µM (inactive) | GI50 (SF-268): > 100 µM (inactive) | GI50 (SF-295): > 100 µM (inactive) | GI50 (SF-539): > 100 µM (inactive) | GI50 (SK-MEL-28): > 100 µM (inactive) | GI50 (SK-MEL-2): > 100 µM (inactive) | GI50 (SK-MEL-5): > 100 µM (inactive) | GI50 (SK-OV-3): > 100 µM (inactive) | GI50 (SN12C): > 100 µM (inactive) | GI50 (SNB-19): > 100 µM (inactive) | GI50 (SNB-75): > 75 µM (inactive) | GI50 (SNB-78): > 100 µM (inactive) | GI50 (SW-620): > 53.6 µM (inactive) | GI50 (TK-10): > 100 µM (inactive) | GI50 (U-251): > 100 µM (inactive) | GI50 (UACC-257): > 100 µM (inactive) | GI50 (UACC-62): > 100 µM (inactive) | GI50 (UO-31): > 100 µM (inactive)

Reference: ChEMBL document CHEMBL1201862, “PubChem BioAssay data set” (2004)
